Reference: patent US9187497B2, “Substituted pyrido[3,2-e]pyrrolo[1,2-a]pyrazines as inhibitors of poly(ADP-ribose)polymerase (PARP)” (Takeda Phamaceutical Company Limited, priority 2009, dated 2015)

Tests used:
[1] = tested on: Jurkat cell line; experiment: PARP cellular chemopotentiation assay (MTS cell viability with and without TMZ); type: cell-based; conditions: ratio of EC50 for inhibition of cell viability without and with 100 μM TMZ; Jurkat cells, 96 hours of treatment
Procedure: Potentiation Factor (PF50) Determination from PARP Cellular Chemopotentiation Assay
Jurkat cell line was maintained according to the supplier (American Type Culture Collection (Rockville, Md.)). Cells were seeded in 96-well tissue culture microplates at 10,000 cells per well and cultured for 24 hours prior to addition of compounds, TMZ (Temozolomide) or DMSO (dimethylsulfoxide) vehicle. After 96 hours of treatment, the conversion of MTS ([3-(4,5-dimethylthiazol-2-yl)-5-(3-carboxymethoxyphenyl)-2-(4-sulfophenyl)-2H-tetrazolium, inner salt], Promega, Madison, Wis.) by metabolically active cells was determined through measuring the OD490 nm with a Spectramax microplate reader (Molecular Devices, San Diego, Calif.). To generate concentration-response curves, cells were treated in duplicate with a range of serial compound dilutions (final DMSO concentration was 0.5%) in the absence or presence of 100 μM TMZ chemoreagent. The percentage of viable cells per well was calculated by correction for background and normalizing against DMSO-treated cells. EC50 values for inhibition of cell viability were calculated using XLfit4 MicroSoft Excel curve-fitting software. Chemopotentiation factor PF50 was calculated as the ratio of EC50 values of cells co-treated without and with TMZ, respectively.

[2] = molecular target: T1, PARP (Homo sapiens, UniProt P09874); experiment: PARP ELISA colorimetric assay of inhibition of PARP catalytic activity (IC50); type: biochemical; conditions: pIC50=-log(IC50), IC50 in molar concentration; ELISA-based PARP kit, 10 minutes of catalysis
T1 construct: purchased Trevigen 4684-096-01 (enzyme); kit 4684-096-K HT
Procedure: Inhibition Constant (IC50) from PARP ELISA
Inhibition of PARP catalytic activity was determined by use of an ELISA-based colorimetric PARP/Apoptosis Assay kit (part number 4684-096-K HT, Trevigen). To each histone coated well in the 96-well plate supplied by the manufacturer (part number 4677-096-P) is added 39 μl of PARP buffer (part number 4671-096-02) and 1 μl of test compound dissolved in DMSO (diluted serially 3-fold 11 times). After mixing, 5 μl of 0.1 nM PARP (part number 4684-096-01) is added and the solution allowed to stand at ambient temperature for 10 minutes. PARP catalysis is initiated with the addition of 5 μl of 100 μM β-nicotinamide adenine dinucleotide (NAD+) (part number 4684-096-02) with activated DNA (part number 4671-096-06). After 10 minutes of catalysis the reaction is quenched by solvent aspiration followed by irrigation of the assay wells 4 times with phosphate buffered saline (PBS) containing 0.1% t-Octylphenoxypolyethoxyethanol (Triton® X-100). Mouse Anti-poly ADP ribose (PAR) monoclonal antibody, goat antimouse immunoglobulin G (IgG)-horse radish peroxidase (HRP) conjugate and HRP substrate are added according to the manufacture's specifications to generate a colorimetric signal proportional to PARP catalytic activity. An IC50 for the test compound is calculated from the equation Absorbance=(Amax−background)/(1+([cmpd]/IC50)^n)+background fit to the 12 point test compound concentration gradient via nonlinear least squares.

T1 sequence (P09874 whole entry): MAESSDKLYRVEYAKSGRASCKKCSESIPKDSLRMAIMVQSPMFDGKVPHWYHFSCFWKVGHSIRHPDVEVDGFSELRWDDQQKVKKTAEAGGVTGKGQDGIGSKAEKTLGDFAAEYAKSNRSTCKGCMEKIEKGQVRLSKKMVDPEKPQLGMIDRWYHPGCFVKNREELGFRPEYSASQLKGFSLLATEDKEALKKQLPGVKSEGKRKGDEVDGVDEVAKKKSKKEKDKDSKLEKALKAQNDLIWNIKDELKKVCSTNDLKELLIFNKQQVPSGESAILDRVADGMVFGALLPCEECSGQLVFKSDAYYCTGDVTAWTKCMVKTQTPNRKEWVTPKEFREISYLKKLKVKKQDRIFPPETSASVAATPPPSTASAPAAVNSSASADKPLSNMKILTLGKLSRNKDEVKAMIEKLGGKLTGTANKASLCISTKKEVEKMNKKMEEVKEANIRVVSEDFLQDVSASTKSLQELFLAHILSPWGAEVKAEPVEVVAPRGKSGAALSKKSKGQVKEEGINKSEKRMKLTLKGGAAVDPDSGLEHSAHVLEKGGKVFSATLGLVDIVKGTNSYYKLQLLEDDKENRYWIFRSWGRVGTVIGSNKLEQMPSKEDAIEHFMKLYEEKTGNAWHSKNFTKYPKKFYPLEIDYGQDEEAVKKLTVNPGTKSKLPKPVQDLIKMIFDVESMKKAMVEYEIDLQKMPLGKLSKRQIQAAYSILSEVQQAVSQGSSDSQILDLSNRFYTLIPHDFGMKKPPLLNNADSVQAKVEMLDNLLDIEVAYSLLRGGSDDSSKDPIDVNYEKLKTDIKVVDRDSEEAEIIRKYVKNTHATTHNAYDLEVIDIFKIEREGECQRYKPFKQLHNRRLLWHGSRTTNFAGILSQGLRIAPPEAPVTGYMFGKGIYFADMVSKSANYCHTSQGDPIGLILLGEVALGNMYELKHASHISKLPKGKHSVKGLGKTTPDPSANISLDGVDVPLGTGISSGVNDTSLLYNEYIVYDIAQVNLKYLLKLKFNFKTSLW

SMILES	PF50 [1]	IC50 [2] [µM]
CNC(=O)c1ccc(N2CCN(Cc3cnc4c(c3)NC(=O)[C@@H]3CCCN43)CC2)nc1 [Compound 6, (S)—N-methyl-6-(4-((6-oxo-5,6,6a,7,8,9-hexahydropyrido[3,2-e]pyrrolo[1,2-a]pyrazin-3-yl)methyl)piperazin-1-yl)nicotinamide]	>10	≤ 0.0126
CNC(=O)c1ccc(N2CCN(Cc3cnc4c(c3)NC(=O)[C@@H]3CCCN43)CC2)cc1 [Compound 11, (S)—N-methyl-4-(4-((6-oxo-5,6,6a,7,8,9-hexahydropyrido[3,2-e]pyrrolo[1,2-a]pyrazin-3-yl)methyl)piperazin-1-yl)benzamide]	>10	0.0158 to 0.0398
CC(C)NC(=O)c1ccc(N2CCN(Cc3cnc4c(c3)NC(=O)[C@@H]3CCCN43)CC2)cc1 [Compound 12, (S)—N-isopropyl-4-(4-((6-oxo-5,6,6a,7,8,9-hexahydropyrido[3,2-e]pyrrolo[1,2-a]pyrazin-3-yl)methyl)piperazin-1-yl)benzamide]	>10	0.0158 to 0.0398
O=C1Nc2cc(CN3CCN(c4ccc(F)cc4)CC3)cnc2N2CCC[C@@H]12 [Compound 24, (S)-3-((4-(4-fluorophenyl)piperazin-1-yl)methyl)-6a,7,8,9-tetrahydropyrido[3,2-e]pyrrolo[1,2-a]pyrazin-6(5H)-one]	>5000	0.0158 to 0.0398
Cc1cccc(N2CCN(Cc3cnc4c(c3)NC(=O)[C@@H]3CCCN43)CC2)c1 [Compound 29, (S)-3-((4-m-tolylpiperazin-1-yl)methyl)-6a,7,8,9-tetrahydropyrido[3,2-e]pyrrolo[1,2-a]pyrazin-6(5H)-one]	>500	≥ 0.0501
O=C1Nc2cc(CN3CCN(c4ccc(Br)cc4)CC3)cnc2N2CCC[C@@H]12 [Compound 37, (S)-3-((4-(4-bromophenyl)piperazin-1-yl)methyl)-6a,7,8,9-tetrahydropyrido[3,2-e]pyrrolo[1,2-a]pyrazin-6(5H)-one]	>2000	≥ 0.0501
O=C1Nc2cc(CN3CCN(c4ccc(Cl)cn4)CC3)cnc2N2CCC[C@@H]12 [Compound 42, (S)-3-((4-(5-chloropyridin-2-yl)piperazin-1-yl)methyl)-6a,7,8,9-tetrahydropyrido[3,2-e]pyrrolo[1,2-a]pyrazin-6(5H)-one]	>500	≥ 0.0501
COC(=O)c1ccc(N2CCN(Cc3cnc4c(c3)NC(=O)[C@@H]3CCCN43)CC2)cc1 [Compound 45, (S)-methyl 4-(4-((6-oxo-5,6,6a,7,8,9-hexahydropyrido[3,2-e]pyrrolo[1,2-a]pyrazin-3-yl)methyl)piperazin-1-yl)benzoate]	>10	0.0158 to 0.0398
O=C1Nc2cc(CN3CCN(c4ccc(Cl)c(F)c4)CC3)cnc2N2CCC[C@@H]12 [Compound 47, (S)-3-((4-(4-chloro-3-fluorophenyl)piperazin-1-yl)methyl)-6a,7,8,9-tetrahydropyrido[3,2-e]pyrrolo[1,2-a]pyrazin-6(5H)-one]	>10	≥ 0.0501
O=C1Nc2cc(CN3CC=C(c4ccc(Cl)cc4)CC3)cnc2N2CCCC[C@@H]12 [Compound 68, (S)-3-((4-(4-chlorophenyl)-5,6-dihydropyridin-1(2H)-yl)methyl)-7,8,9,10-tetrahydro-5H-dipyrido[1,2-a:3′,2′-e]pyrazin-6(6aH)-one]	>5000	≤ 0.0126
O=C1Nc2cc(CN3CCN(c4ccc(Cl)cc4)CC3)cnc2N2CCCC[C@@H]12 [Compound 69, (S)-3-((4-(4-chlorophenyl)piperazin-1-yl)methyl)-7,8,9,10-tetrahydro-5H-dipyrido[1,2-a:3′,2′-e]pyrazin-6(6aH)-one]	>10	≤ 0.0126
O=C1Nc2cc(CN3CCC(c4ccc(Cl)cc4)CC3)cnc2N2CCCC[C@@H]12 [Compound 70, (S)-3-((4-(4-chlorophenyl)piperidin-1-yl)methyl)-7,8,9,10-tetrahydro-5H-dipyrido[1,2-a:3′,2′-e]pyrazin-6(6aH)-one]	≧0	≥ 0.0501
N#Cc1ccc(N2CCN(Cc3cnc4c(c3)NC(=O)[C@@H]3CCCCN43)CC2)nc1 [Compound 72, (S)-6-(4-((6-oxo-6,6a,7,8,9,10-hexahydro-5H-dipyrido[1,2-a:3′,2′-e]pyrazin-3-yl)methyl)piperazin-1-yl)nicotinonitrile]	>500	≤ 0.0126
CNC(=O)c1ccc(N2CCN(Cc3cnc4c(c3)NC(=O)[C@@H]3CCCCN43)CC2)cc1 [Compound 74, (S)—N-methyl-4-(4-((6-oxo-6,6a,7,8,9,10-hexahydro-5H-dipyrido[1,2-a:3′,2′-e]pyrazin-3-yl)methyl)piperazin-1-yl)benzamide]	>10	≤ 0.0126
O=C(NC1CC1)c1ccc(N2CCN(Cc3cnc4c(c3)NC(=O)[C@@H]3CCCCN43)CC2)cc1 [Compound 75, (S)—N-cyclopropyl-4-(4-((6-oxo-6,6a,7,8,9,10-hexahydro-5H-dipyrido[1,2-a:3′,2′-e]pyrazin-3-yl)methyl)piperazin-1-yl)benzamide]	>500	0.0158 to 0.0398
Cc1cscc1-c1ccc(N2CCN(Cc3cnc4c(c3)NC(=O)[C@@H]3CCCCN43)CC2)cc1 [Compound 161, (S)-3-((4-(4-(4-methylthiophen-3-yl)phenyl)piperazin-1-yl)methyl)-7,8,9,10-tetrahydro-5H-dipyrido[1,2-a:3′,2′-e]pyrazin-6(6aH)-one]	–	≥ 0.0501
Cc1ccsc1-c1ccc(N2CCN(Cc3cnc4c(c3)NC(=O)[C@@H]3CCCCN43)CC2)cc1 [Compound 162, (S)-3-((4-(4-(3-methylthiophen-2-yl)phenyl)piperazin-1-yl)methyl)-7,8,9,10-tetrahydro-5H-dipyrido[1,2-a:3′,2′-e]pyrazin-6(6aH)-one]	–	≥ 0.0501
O=C1CCC=C1c1ccc(N2CCN(Cc3cnc4c(c3)NC(=O)[C@@H]3CCCCN43)CC2)cc1 [Compound 163, (S)-3-((4-(4-(5-oxocyclopent-1-enyl)phenyl)piperazin-1-yl)methyl)-7,8,9,10-tetrahydro-5H-dipyrido[1,2-a:3′,2′-e]pyrazin-6(6aH)-one]	–	≥ 0.0501
Cc1ccc(-c2ccc(N3CCN(Cc4cnc5c(c4)NC(=O)[C@@H]4CCCCN54)CC3)cc2)cn1 [Compound 164, (S)-3-((4-(4-(6-methylpyridin-3-yl)phenyl)piperazin-1-yl)methyl)-7,8,9,10-tetrahydro-5H-dipyrido[1,2-a:3′,2′-e]pyrazin-6(6aH)-one]	–	0.0158 to 0.0398
Cn1cc(-c2ccc(N3CCN(Cc4cnc5c(c4)NC(=O)[C@@H]4CCCCN54)CC3)cc2)cn1 [Compound 165, (S)-3-((4-(4-(1-methyl-1H-pyrazol-4-yl)phenyl)piperazin-1-yl)methyl)-7,8,9,10-tetrahydro-5H-dipyrido[1,2-a:3′,2′-e]pyrazin-6(6aH)-one]	–	0.0158 to 0.0398
Cc1ccnc(-c2ccc(N3CCN(Cc4cnc5c(c4)NC(=O)[C@@H]4CCCCN54)CC3)cc2)c1 [Compound 166, (S)-3-((4-(4-(4-methylpyridin-2-yl)phenyl)piperazin-1-yl)methyl)-7,8,9,10-tetrahydro-5H-dipyrido[1,2-a:3′,2′-e]pyrazin-6(6aH)-one]	–	0.0158 to 0.0398
Cc1cc(-c2ccc(N3CCN(Cc4cnc5c(c4)NC(=O)[C@@H]4CCCCN54)CC3)cc2)ccn1 [Compound 167, (S)-3-((4-(4-(2-methylpyridin-4-yl)phenyl)piperazin-1-yl)methyl)-7,8,9,10-tetrahydro-5H-dipyrido[1,2-a:3′,2′-e]pyrazin-6(6aH)-one]	–	0.0158 to 0.0398
O=C1Nc2cc(CN3CCN(c4ccc(-c5cnccn5)cc4)CC3)cnc2N2CCCC[C@@H]12 [Compound 168, (S)-3-((4-(4-(pyrazin-2-yl)phenyl)piperazin-1-yl)methyl)-7,8,9,10-tetrahydro-5H-dipyrido[1,2-a:3′,2′-e]pyrazin-6(6aH)-one]	–	0.0158 to 0.0398
COc1ncccc1-c1ccc(N2CCN(Cc3cnc4c(c3)NC(=O)[C@@H]3CCCCN43)CC2)cc1 [Compound 169, (S)-3-((4-(4-(2-methoxypyridin-3-yl)phenyl)piperazin-1-yl)methyl)-7,8,9,10-tetrahydro-5H-dipyrido[1,2-a:3′,2′-e]pyrazin-6(6aH)-one]	–	≥ 0.0501
